Measurements published in patent US9393221B2, “Methods and compounds for reducing intracellular lipid storage” (THE GENERAL HOSPITAL CORPORATION, priority 2011, dated 2016).
Where a name gives a salt, the structure may show the parent alone.
Wherever Z-score is given: test concentration or dose not given here.

Each compound was assayed on ATGL-KO iPSCs (assay: High throughput iPSC chemical screening, Oil Red O (ORO) lipid accumulation). Details: not given.
Format: cell-based, mouse
`COc1cc2c(c(OC)c1OC)-c1ccc(OC)c(=O)cc1[C@@H](NC(C)=O)CC2` [Colchicine] gave a Z-score of 35.6417.

Same assay, conditions: glycolytic switch compounds
In the case of `CCN(CC)CCOc1ccc(C(=C(Cl)c2ccccc2)c2ccccc2)cc1.O=C(O)CC(O)(CC(=O)O)C(=O)O` [Clomiphene citrate (Z,E), reference compound], the “Rank in normalized ORO score from screen” value is reported as 928.
With `Clc1ccc(C(OCCN2CCCCC2)c2ccccc2)cc1` (stereo not shown) [Cloperastine hydrochloride] the “Rank in normalized ORO score from screen” value was 863.
In the case of `Clc1ccccc1C(c1ccccc1)(c1ccccc1)n1ccnc1` [Clotrimazole], the “Rank in normalized ORO score from screen” value is reported as 37.
In the case of `CN(C)CCC=C1c2ccccc2C=Cc2ccccc21` [Cyclobenzaprine hydrochloride], the “Rank in normalized ORO score from screen” value is reported as 579.

Same assay, conditions: normalized ORO level vs DMSO-treated cells; compound present during 7 days differentiation, 96-well; negative = decrease in lipid accumulation
In the case of `C[N+]12CCC(CC1)C(OC(=O)C(O)(c1ccccc1)c1ccccc1)C2` (stereo not shown) [Clidinium bromide, reference compound], the Z-score is reported as −1.8548.
In the case of `Oc1c(I)cc(Cl)c2cccnc12` [Clioquinol], the Z-score is reported as −1.5195.
With `CCC(=O)O[C@]1(C(=O)CCl)[C@@H](C)C[C@H]2[C@@H]3CCC4=CC(=O)C=C[C@]4(C)[C@@]3(F)[C@@H](O)C[C@@]21C` [Clobetasol propionate] the Z-score was 2.1955.
With `C[C@@H]1C[C@H]2[C@@H]3C[C@H](F)C4=CC(=O)C=C[C@]4(C)[C@@]3(Cl)[C@@H](O)C[C@]2(C)[C@H]1C(=O)COC(=O)C(C)(C)C` [Clocortolone pivalate] the Z-score was 1.217.
`CC(C)/N=c1\cc2n(-c3ccc(Cl)cc3)c3ccccc3nc-2cc1Nc1ccc(Cl)cc1` [Clofazimine] showed a Z-score of −0.5584.
`CC(C)(Oc1ccc(Cl)cc1)C(=O)O` [Clofibric acid] gave a Z-score of 2.297.
`CCN(CC)CCOc1ccc(C(=C(Cl)c2ccccc2)c2ccccc2)cc1.O=C(O)CC(O)(CC(=O)O)C(=O)O` [Clomiphene citrate (Z,E), reference compound] gave a Z-score of 1.107.
In the case of `Clc1cccc(Cl)c1N=C1NCCN1` [Clonidine hydrochloride], the Z-score is reported as 0.04408.
`C[C@@H]1CCC[C@H](C)N1NC(=O)c1ccc(Cl)c(S(N)(=O)=O)c1` [Clopamide] was tested, and the Z-score was −0.9945.
Work on `Clc1ccc(C(OCCN2CCCCC2)c2ccccc2)cc1` (stereo not shown) [Cloperastine hydrochloride] yielded a Z-score of 0.7661.
With `C#CCN(C)CCCOc1ccc(Cl)cc1Cl` [Clorgyline hydrochloride] the Z-score was −0.8658.
`Nc1cc(C(Cl)=C(Cl)Cl)c(S(N)(=O)=O)cc1S(N)(=O)=O` [Clorsulon] showed a Z-score of −0.1576.
`Clc1ccccc1C(c1ccccc1)(c1ccccc1)n1ccnc1` [Clotrimazole] gave a Z-score of −1.6708.
`Cc1onc(-c2ccccc2Cl)c1C(=O)N[C@@H]1C(=O)N2[C@@H]1SC(C)(C)[C@@H]2C(=O)O` [Cloxacillin sodium salt] showed a Z-score of −1.0101.
For `CN1CCN(C2=Nc3cc(Cl)ccc3Nc3ccccc32)CC1` [Clozapine], the Z-score was 0.4154.
Work on `CCN1C[C@]2(COC)CC[C@H](O)[C@@]34C5C[C@@H]6[C@@H](OC)C[C@](O)(C(CC23)C14)C5[C@H]6OC(C)=O` (stereo partly shown) [Condelphine] yielded a Z-score of 0.3143.
With `COc1ccc(C(=O)OC2C[C@H]3CC[C@@H](C2)N3C)cc1OC.Cl` (stereo partly shown) [Convolamine hydrochloride] the Z-score was −1.0829.
Compound `COc1cc2cc3c4cc(OC)c(OC)cc4cc[n+]3c(C)c2cc1OC.O.[Cl-]` [Coralyne chloride hydrate] has a Z-score of 7.275.
`C[C@]12C[C@H](O)[C@H]3[C@@H](CCC4=CC(=O)CC[C@@]43C)[C@@H]1CC[C@@H]2C(=O)CO` [Corticosterone] showed a Z-score of −1.2709.
`C[C@]12CCC(=O)C=C1CC[C@@H]1[C@@H]2C(=O)C[C@@]2(C)[C@H]1CC[C@]2(O)C(=O)CO` [Cortisone] was tested, and the Z-score was −1.8033.
For `COC(=O)[C@H]1[C@H]2C[C@H]3c4[nH]c5ccccc5c4CCN3C[C@@H]2CC[C@@H]1O.Cl` [Corynanthine hydrochloride], the Z-score was −0.2498.
`O=C(O)c1cc(=O)c2c(OCC(O)COc3cccc4oc(C(=O)O)cc(=O)c34)cccc2o1` [Cromolyn disodium salt] gave a Z-score of −1.7273.
Work on `CC=CC(=O)N(CC)c1ccccc1C` [Crotamiton] yielded a Z-score of 2.886.
Compound `CC1(C)S[C@@H]2[C@H](NC(=O)C3(N)CCCCC3)C(=O)N2[C@H]1C(=O)O` [Cyclacillin] has a Z-score of 2.402.
`CN1CCN(C(c2ccccc2)c2ccccc2)CC1` [Cyclizine hydrochloride] was tested, and the Z-score was −0.9231.
Compound `CN(C)CCC=C1c2ccccc2C=Cc2ccccc21` [Cyclobenzaprine hydrochloride] has a Z-score of −0.1421.
